From patent US6310093A (priority 1998, dated 2001)

Experiments:
neuronal cultures = assay: Glutamate production by intact and damaged neuronal cultures with added glutamine; assay type: cell-based, mouse (Swiss Webster); conditions: for Glutamate concentration (in words) / Glutamate production (S): 2 mM Gln
Description: When 2 mM glutamine is added to intact neuronal cultures, the rate at which glutamate accumulates in the culture medium increases with time (FIG. 2). Since the clearance of medium glutamate by neuronal cultures is extremely slow, one estimate of the rate of glutamate production by neurons exposed to glutamine can be obtained from the initial rate of glutamate accumulation. Using the difference in glutamate concentrations at 1 and 15 min after glutamine addition, a value of 0.032±0.006 μM/min (12.8 pmol/min) was obtained. Since glutamine exposure itself eventually causes neuronal death and high rates of glutamine hydrolysis, this estimate of glutamate production should be viewed as an upper limit. However, this value is similar to that obtained by comparing glutamate production by glial and mixed neuronal-glial cultures exposed to glutamine (see below).
In the absence of added glutamine (i.e., in the 0.15 mM glutamine manufactured by the neuronal cultures), glutamate production into the medium of cultures lysed by freezing and thawing occurred at a rate of 0.035±0.006 μM/min (14 pmol/min). […] Thus, damaged neurons incubated in 2 mM glutamine produce within 6-8 min an amount equal to that released by freeze-thawing.
Pre-column derivatization with o-phthalaldehyde (OPA, Sigma) and separation by reversed phase HPLC was used. A Gilson HPLC was fitted with a Hewlett-Packard model 1046A fluorimetric detector (excitation 340 nm, emission 420 nm). Medium was collected from cell culture at various times, and frozen at -80° C., prior to dilution of 5 or 10 μl into auto-sampler vials containing 40 or 45 μl dimethylformamide:water 1:3 (derivatives with 2-mercaptoethanol) or 1:9 (derivatives with N-acetyl-L-cysteine). For analysis of the derivatives formed with 2-mercaptoethanol, samples were reacted according to published methods (Newcomb, R. (1989) LC GC 7, 570-578; Lindroth, P., and Mopper. K., (1979) Anal. Chem. 51, 1667-1674.), and a gradient of 0-40% methanol in 1.25 mM sodium phosphate pH 6.2 over 20 min was used to elute the derivatives from a 4.5×250 mm Beckman Ultrasphere octadecylsilica column (dp 5 μm) at 1 ml/min. For analysis of the derivatives formed with N-acetyl-L-cysteine (Bruckner), samples were reacted with 25 μl of 1 mg/ml OPA, and 50 μl of 1 mg/ml N-acetyl-L-cysteine (Fluka) in 0.5 M potassium borate pH 10.0. Chromatography was carried out on a 4.5×250 mm Phenomonex Primesphere "HC" octadecylsilica column (dp 5 μm) using a gradient of 0-35% methanol in 15 mM sodium phosphate pH 6.2 (0.13% tetrahydrofuran) over 65 minutes at 1 ml/min. It was shown for each of the experimental conditions (ie. glial and control and damaged neuronal and mixed cultures) that both analytical systems gave results for glutamate and glutamine measurements which were, within error, identical.
Glutamate concentrations were converted to units of pmol/μl of culture medium, or μM. In the absence of cellular uptake (ie, in damaged neuronal cultures), the rate of glutamate production was obtained directly from the measurements of the amounts of glutamate in culture medium at various times.

[1] = tested on: glial cultures (astrocytes); assay: Glutamate and cell death in glial cultures exposed to hypoxia with glutamine; assay type: cell-based, mouse (Swiss Webster); conditions: for Glu: hypoxia, 2 mM Gln
Description: Measurements of glutamate and glutamine concentrations, as well as of the release of the cytoplasmic marker enzyme, lactate dehydrogenase (LDH), were made with the medium of mixed neuronal-astrocyte cultures exposed to hypoxic and control conditions, with and without the addition of 2 mM glutamine. For comparative purposes, the measurements were made in mixed cultures in which complete neuronal death was caused by a 5h exposure to 500 μM NMDA. The first glutamate measurement was made at the end of hypoxia (5h with mixed cultures, 7h with astrocytes), and the second at 19 h after the subsequent return of oxygen. If added, glutamine was present during and after hypoxia. LDH released by the experimental treatment was measured at 24 h, and is expressed as a percentage of the total cellular content (neurons in mixed cultures, and glia in glial cultures). To verify the neuronal origin of LDH and glutamate, similar experiments were performed on cultures that only contained glia.
Astrocytes were cultured from cortical cell suspensions from 1-2 day old Swiss Webster mouse pups. Mixed cultures of neurons and astrocytes were obtained by plating cortical neurons from embryonic day 15-16 mice on confluent astrocyte monolayers. Pure neuronal cultures were made from the same embryonic cortical cell suspensions; astrocyte growth was inhibited by adding cytosine arabinoside and decreasing serum in the medium. For survival, neuronal cultures were fed with glial conditioned medium. Neuronal cultures were used for experiments at 11-15 days in vitro, and mixed cultures at 13-15 days after plating the neurons.
Hypoxia was carried out at 37° C. in an anoxic chamber (<0.2% oxygen; Forma Scientific). Before each experiment, the medium was pre-equilibrated with an anoxic gas mixture containing 5% CO2, 85% N2 and 10% H2 and incubated at 37° C. […] The oxygen tension in the anoxic chamber was monitored using an oxygen electrode (Model MI-730; Microelectrodes Inc.). […]

[2] = tested on: pure neuronal cultures (cortical neurons) exposed to glutamine

## NC(=O)CC[C@H](N)C(=O)O [Gln, glutamine]
Neuronal cultures; 2 mM glutamine
  glutamate production by damaged neurons vs intact neurons or glia: 10-30 fold
Neuronal cultures; NMDA-treated neurons
  Glutamate concentration (in words): increases linearly
  Glutamate production (S): 0.54 ± 0.09 µM/min
Neuronal cultures; NMDA-treated neurons, 2 mM glutamine
  glutamate production per culture: 216 pmol/min
Neuronal cultures; freeze-thaw damaged neurons
  Glutamate concentration (in words): increases linearly
  Glutamate production (S): 0.79 ± 0.08 µM/min
Neuronal cultures; freeze-thawed neurons, 2 mM glutamine
  glutamate production per culture: 316 pmol/min
Neuronal cultures; intact neurons
  Glutamate concentration (in words): increases
  Glutamate production (S): 0.032 ± 0.006 µM/min
Neuronal cultures; intact neurons, 2 mM glutamine
  glutamate production per culture: 12.8 pmol/min
[1]; Mus musculus, Astrocyte, 24 h, read-out: % cell death (LDH)
  cytotoxicity at 2000 µM: 2 to 5%
[1]; 7 h
  Glu: 0.39 ± .09 µM
[1]; 24 h
  Glu: 0.39 ± 0.07 µM
[2]
  medium glutamate: 197 ± 23 μM Glu
